From ChEMBL document CHEMBL5291721, “A preclinical secondary pharmacology resource illuminates target-adverse drug reaction associations of marketed drugs” (Nat Commun, 2023)

Key:
[1] = target: Voltage-gated inwardly rectifying potassium channel KCNH2 (Homo sapiens, UniProt Q12809); format: functional; details: read-out: AC50
[2] = target: T1, Adenosine receptor A1 (Homo sapiens, UniProt P30542)
T1 sequence (P30542 whole entry): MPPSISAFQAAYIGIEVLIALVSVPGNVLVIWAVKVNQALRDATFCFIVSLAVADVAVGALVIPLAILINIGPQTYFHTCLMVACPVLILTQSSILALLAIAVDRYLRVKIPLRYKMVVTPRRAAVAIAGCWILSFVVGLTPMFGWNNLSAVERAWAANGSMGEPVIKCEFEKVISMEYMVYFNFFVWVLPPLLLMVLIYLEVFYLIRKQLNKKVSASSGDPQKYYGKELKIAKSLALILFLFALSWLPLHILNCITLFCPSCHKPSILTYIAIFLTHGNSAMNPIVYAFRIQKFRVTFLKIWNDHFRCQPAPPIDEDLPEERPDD

[3] = target: Adenosine receptor A2a (Homo sapiens, UniProt P29274)
Adenosine receptor A2a, sequence (P29274 whole entry): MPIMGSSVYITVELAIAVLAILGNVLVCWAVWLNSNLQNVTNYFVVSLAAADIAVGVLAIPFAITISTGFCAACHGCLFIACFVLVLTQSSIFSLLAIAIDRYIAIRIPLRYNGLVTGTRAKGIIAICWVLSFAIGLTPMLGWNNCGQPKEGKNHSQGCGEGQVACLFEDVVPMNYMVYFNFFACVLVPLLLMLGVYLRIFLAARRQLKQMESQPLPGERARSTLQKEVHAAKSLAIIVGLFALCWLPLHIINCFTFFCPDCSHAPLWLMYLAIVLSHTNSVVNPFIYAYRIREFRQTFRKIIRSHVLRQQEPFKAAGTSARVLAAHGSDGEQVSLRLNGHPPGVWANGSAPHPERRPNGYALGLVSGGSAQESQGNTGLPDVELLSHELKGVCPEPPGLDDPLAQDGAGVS

[4] = target: T2, Adenosine receptor A3 (Homo sapiens, UniProt P0DMS8)
T2 sequence (P0DMS8 whole entry): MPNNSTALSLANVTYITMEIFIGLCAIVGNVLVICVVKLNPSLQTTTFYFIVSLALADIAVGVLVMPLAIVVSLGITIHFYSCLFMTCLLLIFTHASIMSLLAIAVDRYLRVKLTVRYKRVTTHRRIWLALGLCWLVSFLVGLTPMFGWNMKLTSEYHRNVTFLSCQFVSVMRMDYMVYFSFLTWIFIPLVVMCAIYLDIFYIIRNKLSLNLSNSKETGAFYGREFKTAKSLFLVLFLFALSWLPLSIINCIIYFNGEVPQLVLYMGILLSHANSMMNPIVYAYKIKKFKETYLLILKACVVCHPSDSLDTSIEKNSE

[5] = target: Vasopressin V1a receptor (Homo sapiens, UniProt P37288)
Vasopressin V1a receptor, sequence (P37288 whole entry): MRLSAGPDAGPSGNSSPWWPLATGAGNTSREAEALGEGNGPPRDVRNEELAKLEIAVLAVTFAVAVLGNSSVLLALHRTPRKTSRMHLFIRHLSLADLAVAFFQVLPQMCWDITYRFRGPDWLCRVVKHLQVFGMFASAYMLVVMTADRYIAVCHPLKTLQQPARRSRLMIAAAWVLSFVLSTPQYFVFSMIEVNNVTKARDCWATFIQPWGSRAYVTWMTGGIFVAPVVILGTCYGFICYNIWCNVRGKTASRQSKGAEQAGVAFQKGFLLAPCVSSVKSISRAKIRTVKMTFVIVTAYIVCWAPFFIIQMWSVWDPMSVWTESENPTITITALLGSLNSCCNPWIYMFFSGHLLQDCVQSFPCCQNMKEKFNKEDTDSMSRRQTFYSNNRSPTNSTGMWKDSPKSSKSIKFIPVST

[6] = target: D(1A) dopamine receptor (Homo sapiens, UniProt P21728); format: functional, cell-based
D(1A) dopamine receptor, sequence (P21728 whole entry): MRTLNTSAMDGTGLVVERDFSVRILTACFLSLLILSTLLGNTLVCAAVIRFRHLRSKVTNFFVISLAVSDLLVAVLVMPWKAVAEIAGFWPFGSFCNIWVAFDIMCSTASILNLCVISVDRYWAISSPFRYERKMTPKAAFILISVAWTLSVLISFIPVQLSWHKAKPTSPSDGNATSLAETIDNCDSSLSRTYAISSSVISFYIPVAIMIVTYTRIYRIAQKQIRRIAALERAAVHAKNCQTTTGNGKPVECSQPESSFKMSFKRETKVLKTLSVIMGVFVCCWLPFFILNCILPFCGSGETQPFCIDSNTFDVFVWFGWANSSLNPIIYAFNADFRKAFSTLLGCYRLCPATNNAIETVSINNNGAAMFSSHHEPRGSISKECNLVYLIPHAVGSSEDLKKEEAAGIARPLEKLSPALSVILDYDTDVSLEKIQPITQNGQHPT

[7] = target: Gamma-aminobutyric acid receptor subunit alpha-1 (Rattus norvegicus, UniProt P62813); format: functional
Gamma-aminobutyric acid receptor subunit alpha-1, sequence (P62813 whole entry): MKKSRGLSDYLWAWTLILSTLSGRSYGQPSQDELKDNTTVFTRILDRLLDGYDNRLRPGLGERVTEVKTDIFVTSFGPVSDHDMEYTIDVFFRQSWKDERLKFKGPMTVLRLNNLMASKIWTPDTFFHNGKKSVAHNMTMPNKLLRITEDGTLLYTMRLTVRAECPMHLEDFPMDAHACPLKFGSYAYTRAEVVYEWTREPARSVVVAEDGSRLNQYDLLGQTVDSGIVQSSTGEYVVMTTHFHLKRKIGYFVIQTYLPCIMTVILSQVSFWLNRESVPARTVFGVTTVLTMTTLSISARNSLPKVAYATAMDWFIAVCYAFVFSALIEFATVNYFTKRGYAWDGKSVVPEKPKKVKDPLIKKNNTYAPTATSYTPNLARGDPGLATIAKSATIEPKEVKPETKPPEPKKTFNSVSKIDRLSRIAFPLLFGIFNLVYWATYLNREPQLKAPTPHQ

[8] = target: T3, 5-hydroxytryptamine receptor 2C (Homo sapiens, UniProt P28335)
T3 sequence (P28335 whole entry): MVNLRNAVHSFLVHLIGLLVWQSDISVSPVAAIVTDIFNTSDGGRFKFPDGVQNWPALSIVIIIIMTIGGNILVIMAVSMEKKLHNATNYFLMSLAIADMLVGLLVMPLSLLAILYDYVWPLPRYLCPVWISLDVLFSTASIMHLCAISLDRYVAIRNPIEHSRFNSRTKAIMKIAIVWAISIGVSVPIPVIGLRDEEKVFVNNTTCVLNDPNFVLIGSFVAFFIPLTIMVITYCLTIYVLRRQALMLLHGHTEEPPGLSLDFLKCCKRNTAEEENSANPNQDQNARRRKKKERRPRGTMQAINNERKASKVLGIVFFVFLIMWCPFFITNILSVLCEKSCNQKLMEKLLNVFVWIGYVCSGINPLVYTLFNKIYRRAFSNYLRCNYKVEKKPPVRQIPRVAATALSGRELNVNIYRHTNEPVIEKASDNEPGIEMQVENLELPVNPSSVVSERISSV

[9] = target: Melanocortin receptor 3 (Homo sapiens, UniProt P41968)
Melanocortin receptor 3, sequence (P41968 whole entry): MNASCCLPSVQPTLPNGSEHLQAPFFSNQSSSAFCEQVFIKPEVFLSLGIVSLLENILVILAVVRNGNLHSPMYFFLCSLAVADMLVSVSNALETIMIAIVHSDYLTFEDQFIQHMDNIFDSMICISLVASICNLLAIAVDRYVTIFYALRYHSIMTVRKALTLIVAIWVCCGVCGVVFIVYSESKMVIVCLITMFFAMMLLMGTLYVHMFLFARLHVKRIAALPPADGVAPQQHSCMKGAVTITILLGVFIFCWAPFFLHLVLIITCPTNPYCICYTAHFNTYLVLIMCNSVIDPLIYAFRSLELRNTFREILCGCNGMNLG

[10] = target: T4, Prostaglandin G/H synthase 1 (Rattus norvegicus, UniProt Q63921); format: functional
T4 sequence (Q63921 whole entry): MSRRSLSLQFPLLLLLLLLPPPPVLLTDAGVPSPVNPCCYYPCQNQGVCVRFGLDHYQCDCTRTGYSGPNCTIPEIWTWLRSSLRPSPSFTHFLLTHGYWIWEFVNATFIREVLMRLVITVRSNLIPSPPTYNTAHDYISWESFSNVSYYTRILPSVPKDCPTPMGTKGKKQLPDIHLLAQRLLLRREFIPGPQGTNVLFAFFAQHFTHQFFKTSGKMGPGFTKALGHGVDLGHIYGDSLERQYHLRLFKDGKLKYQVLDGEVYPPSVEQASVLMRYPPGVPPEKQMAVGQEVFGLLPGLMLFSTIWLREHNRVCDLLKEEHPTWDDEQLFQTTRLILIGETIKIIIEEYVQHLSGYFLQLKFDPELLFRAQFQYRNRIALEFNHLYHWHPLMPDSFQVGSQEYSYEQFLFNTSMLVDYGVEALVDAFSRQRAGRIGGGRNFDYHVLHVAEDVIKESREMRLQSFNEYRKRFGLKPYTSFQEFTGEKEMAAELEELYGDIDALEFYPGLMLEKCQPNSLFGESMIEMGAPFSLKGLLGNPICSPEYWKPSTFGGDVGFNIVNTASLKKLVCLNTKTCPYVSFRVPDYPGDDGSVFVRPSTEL

[11] = target: Glutamate receptor ionotropic, NMDA 1 (Rattus norvegicus, UniProt P35439)
Further: assay procedure not described here.

Voltage-gated inwardly rectifying potassium channel KCNH2, sequence (Q12809 whole entry): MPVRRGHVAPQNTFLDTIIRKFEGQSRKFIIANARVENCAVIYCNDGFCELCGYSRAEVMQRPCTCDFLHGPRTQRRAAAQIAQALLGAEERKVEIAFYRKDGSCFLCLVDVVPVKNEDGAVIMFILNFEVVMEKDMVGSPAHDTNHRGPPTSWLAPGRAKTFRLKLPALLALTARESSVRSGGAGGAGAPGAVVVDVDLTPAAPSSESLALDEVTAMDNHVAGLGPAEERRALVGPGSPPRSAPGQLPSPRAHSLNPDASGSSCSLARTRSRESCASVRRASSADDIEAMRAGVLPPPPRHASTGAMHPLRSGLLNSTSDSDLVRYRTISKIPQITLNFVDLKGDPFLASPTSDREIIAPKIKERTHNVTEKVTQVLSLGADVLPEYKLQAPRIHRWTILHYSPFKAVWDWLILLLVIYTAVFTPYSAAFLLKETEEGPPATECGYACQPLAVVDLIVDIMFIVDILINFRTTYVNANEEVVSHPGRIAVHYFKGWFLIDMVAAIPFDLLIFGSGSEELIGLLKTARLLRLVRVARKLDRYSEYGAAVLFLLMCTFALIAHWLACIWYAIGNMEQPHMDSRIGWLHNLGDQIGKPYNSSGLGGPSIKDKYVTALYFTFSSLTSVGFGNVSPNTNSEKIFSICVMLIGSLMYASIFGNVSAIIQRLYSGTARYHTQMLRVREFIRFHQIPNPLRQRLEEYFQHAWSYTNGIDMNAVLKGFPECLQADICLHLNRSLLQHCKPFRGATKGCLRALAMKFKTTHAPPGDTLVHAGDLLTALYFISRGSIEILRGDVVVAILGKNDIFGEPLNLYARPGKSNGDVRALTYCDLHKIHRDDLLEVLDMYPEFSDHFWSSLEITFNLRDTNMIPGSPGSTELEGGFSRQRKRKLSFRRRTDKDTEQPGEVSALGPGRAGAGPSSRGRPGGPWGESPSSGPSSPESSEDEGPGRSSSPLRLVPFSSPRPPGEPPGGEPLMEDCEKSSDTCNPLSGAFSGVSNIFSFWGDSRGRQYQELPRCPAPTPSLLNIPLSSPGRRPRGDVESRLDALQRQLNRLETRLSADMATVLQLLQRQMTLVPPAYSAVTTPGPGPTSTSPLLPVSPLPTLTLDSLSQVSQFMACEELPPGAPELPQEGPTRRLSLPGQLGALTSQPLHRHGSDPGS

SMILES | AC50 [1] [µM] | AC50 [2] [µM] | AC50 [3] [µM] | AC50 [4] [µM] | AC50 [5] [µM] | AC50 [6] [µM] | AC50 [7] [µM] | AC50 [8] [µM] | AC50 [9] [µM] | AC50 [10] [µM] | AC50 [11] [µM]
CC(C)(S)[C@@H](N)C(=O)O [PENICILLAMINE] | > 30 | – | – | – | – | – | – | – | – | – | –
C1CCC(C(CC2CCCCN2)C2CCCCC2)CC1 (centres undefined) [PERHEXILINE] | – | > 30 | > 30 | 14.1 | > 30 | > 30 | > 30 | > 30 | 8.28 | > 30 | –
C[N+]1(C)CCC(OC(=O)C(O)(c2ccccc2)C2CCCC2)C1 (centres undefined) [GLYCOPYRRONIUM BROMIDE] | – | – | – | – | > 30 | – | – | – | > 30 | – | –
CNC1Cc2ccccc2N(C)c2ccccc21 (centres undefined) [METAPRAMINE] | 5.9 | > 30 | > 30 | > 30 | > 30 | > 30 | > 30 | 29 | > 30 | > 30 | –
Oc1c(Cl)cc(Cl)c2cccnc12 [CHLOROXINE] | > 30 | – | – | – | – | – | – | – | – | – | –
CN(C)S(=O)(=O)c1ccc2c(c1)N(CCCN1CCC(CCO)CC1)c1ccccc1S2 [PIPOTIAZINE] | 0.39 | – | – | – | – | – | – | – | – | – | –
CN(C)CCC=C1c2ccccc2C(C)(C)c2ccccc21 | 4.13 | > 30 | > 30 | > 30 | > 30 | > 30 | > 30 | 5.8 | 21 | > 30 | –
C[C@H]1CNCCc2ccc(Cl)cc21 [LORCASERIN] | 6.5 | > 30 | > 30 | > 30 | > 30 | > 30 | > 30 | – | > 30 | > 30 | –
COc1cc(NC(C)CCCN)c2ncccc2c1 (centres undefined) [PRIMAQUINE] | 20 | > 30 | > 30 | – | – | – | – | – | > 30 | > 30 | –
CNC(=O)c1ccccc1Sc1ccc2c(/C=C/c3ccccn3)n[nH]c2c1 [AXITINIB] | > 30 | > 30 | > 30 | 4.52 | > 30 | > 30 | > 30 | > 30 | > 30 | > 30 | –
N[C@@H]1[C@H]2CN(c3nc4c(cc3F)c(=O)c(C(=O)O)cn4-c3ccc(F)cc3F)C[C@@H]12 [TROVAFLOXACIN] | > 30 | > 30 | > 30 | > 30 | > 30 | > 30 | > 30 | > 30 | > 30 | > 30 | –
CC(=O)Nc1ccc(O)cc1 [ACETAMINOPHEN] | > 30 | > 30 | > 30 | > 30 | > 30 | – | > 30 | > 30 | > 30 | > 30 | –
CCOC(=O)[C@H](CCc1ccccc1)N[C@@H](C)C(=O)N1[C@H](C(=O)O)C[C@H]2CCCC[C@@H]21 [TRANDOLAPRIL] | > 30 | – | – | – | – | – | – | – | – | – | –
N[C@H](C(=O)O)[C@H](O)c1ccc(O)c(O)c1 [DROXIDOPA] | > 30 | – | – | – | – | – | – | – | – | – | –
O=P1(NCCCl)OCCCN1CCCl (centres undefined) [IFOSFAMIDE] | > 30 | > 30 | > 30 | > 30 | – | > 30 | > 30 | > 30 | > 30 | > 30 | > 30
COC(c1ccccc1)(c1ccccc1)[C@H](Oc1nc(C)cc(C)n1)C(=O)O [AMBRISENTAN] | > 30 | – | – | – | – | – | – | – | – | – | –
CCCSc1ccc2nc(NC(=O)OC)[nH]c2c1 [ALBENDAZOLE] | 10.4 | > 10 | > 30 | > 30 | – | > 10 | > 10 | > 30 | > 30 | > 30 | > 10
CN(C)CCN1C(=O)c2ccccc2N(C)c2ccccc21 [DIBENZEPIN] | > 30 | – | – | – | – | – | – | – | – | – | –

SMILES | AC50 [1] [µM] | AC50 [2] [µM] | AC50 [3] [µM] | AC50 [4] [µM] | AC50 [5] [µM] | AC50 [6] [µM] | AC50 [7] [µM] | AC50 [8] [µM] | AC50 [9] [µM] | AC50 [10] [µM] | AC50 [11] [µM]
CC(=O)N[C@@H]1[C@@H](O)[C@H](O)[C@@H](CO)O[C@H]1O [N-ACETYLGLUCOSAMINE] | > 30 | – | – | – | – | – | – | – | – | – | –
CCCCCCOc1nsnc1C1=CCCN(C)C1 [XANOMELINE] | 1.3 | – | – | – | – | – | – | – | – | – | –
CN(C)CC(c1ccc(O)cc1)C1(O)CCCCC1 (centres undefined) [DESVENLAFAXINE] | > 30 | – | – | – | – | – | – | – | – | – | –
COc1ccc(CC(C)(C)NC[C@H](O)c2cc(O)cc3c2OCC(=O)N3)cc1 [OLODATEROL] | 6.3 | > 30 | > 30 | > 30 | > 30 | > 30 | > 30 | > 30 | > 30 | 17.5 | –
CC(=O)NCCCS(=O)(=O)O [ACAMPROSATE] | > 30 | > 30 | > 30 | > 30 | > 30 | > 30 | > 30 | > 30 | > 30 | > 30 | –
CCC1=C(C)CN(C(=O)NCCc2ccc(S(=O)(=O)NC(=O)N[C@H]3CC[C@H](C)CC3)cc2)C1=O [GLIMEPIRIDE] | > 30 | – | – | – | – | – | – | – | – | – | –
CN(C)/N=N/c1[nH]cnc1C(N)=O [DACARBAZINE] | > 30 | > 10 | > 10 | > 10 | – | > 10 | > 10 | > 30 | > 10 | > 10 | > 10
CC(C)(C)NC[C@H](O)COc1ccccc1C1CCCC1 [PENBUTOLOL] | 11 | – | – | – | – | – | – | – | – | – | –
CC[N+]1(C)[C@@H]2CC(OC(=O)[C@H](CO)c3ccccc3)C[C@H]1[C@@H]1O[C@@H]12 (some centres undefined) [OXITROPIUM] | > 30 | – | – | – | – | – | – | – | – | – | –
C[C@]12CC[C@@H]3c4ccc(O)cc4CC[C@H]3[C@@H]1C[C@@H](O)[C@@H]2O [ESTRIOL] | > 30 | – | – | – | – | – | – | – | – | – | –
CN(C)[C@@H](c1cccc(O)c1)[C@H]1CCCC[C@H]1O [CIRAMADOL] | > 30 | – | – | – | – | – | – | – | – | – | –
c1cnc(N2CCN(Cc3ccc4c(c3)OCO4)CC2)nc1 [PIRIBEDIL] | 19 | > 30 | > 30 | > 30 | > 30 | > 30 | > 30 | > 30 | > 30 | > 30 | –
CC(C)Nc1ncccn1 [ISAXONINE] | > 30 | – | – | – | – | – | – | – | – | – | –
Clc1ccc(C(c2ccccc2Cl)C(Cl)Cl)cc1 (centres undefined) [MITOTANE] | > 30 | > 10 | > 10 | > 10 | – | > 10 | > 10 | > 30 | > 10 | > 10 | > 10
O=C(O)c1cc(O)ccc1O [GENTISIC ACID] | > 30 | – | – | – | – | – | – | – | – | 18 | –
OCCN1C[C@H](O)[C@@H](O)[C@H](O)[C@H]1CO [MIGLITOL] | > 30 | – | – | – | – | – | – | – | – | – | –
O=C(Cc1ccc(-c2ccccc2)cc1)Nc1ccccn1 [DIFENPIRAMIDE] | > 30 | – | – | – | – | > 30 | > 30 | > 30 | – | – | > 30
O=C(CCNNC(=O)c1ccncc1)NCc1ccccc1 [NIALAMIDE] | > 30 | – | – | – | – | – | – | – | – | – | –
